Inconclusive results and toxic doses are left out. Cut-off read from the data, not from the text of the source: active = T/C of 150% or more; inactive = T/C below 125%.
Test system: L1210 leukemia ip in BDF1 mice, survival T/C
Assay: NCI In Vivo Anticancer Drug Screen. Data for tumor model L1210 Leukemia (intraperitoneal) in B6D2F1 (BDF1) mice
Settings: endpoint: mean survival time, higher = longer survival
Method in brief: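 Transplantable tumor model; survival measured in treated vs vehicle control mice. Value = treated/control.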

[1] = dose: 100.0 mg/kg/injection, schedule: Q04DX002 (ip), vehicle: Klucel (hydroxypropylcellulose) (HPC)
[2] = dose: 200.0 mg/kg/injection, schedule: Q04DX002 (ip), vehicle: Klucel (hydroxypropylcellulose) (HPC)
[3] = dose: 100.0 mg/kg/injection, schedule: Q04DX002 (ip), vehicle: saline with Tween-80
[4] = dose: 200.0 mg/kg/injection, schedule: Q04DX002 (ip), vehicle: saline with Tween-80
[5] = dose: 400.0 mg/kg/injection, schedule: Q04DX002 (ip), vehicle: saline with Tween-80

Measured: T/C

CSC(N(C)C)=[N+](C)C
inactive: dose: 15.0 mg/kg/injection, schedule: Q01DX Z (ip), vehicle: methylcellulose (MC) 101 % of control | dose: 30.0 mg/kg/injection, schedule: Q01DX Z (ip), vehicle: methylcellulose (MC) 105 % of control | dose: 60.0 mg/kg/injection, schedule: Q01DX Z (ip), vehicle: methylcellulose (MC) 105 % of control | dose: 60.0 mg/kg/injection, schedule: Q01DX Z (oral), vehicle: methylcellulose (MC) 95 % of control | dose: 100.0 mg/kg/injection, schedule: Q04DX003 (ip), vehicle: saline with Tween-80 100 % of control | dose: 120.0 mg/kg/injection, schedule: Q01DX Z (ip), vehicle: methylcellulose (MC) 103 % of control | dose: 120.0 mg/kg/injection, schedule: Q01DX Z (oral), vehicle: methylcellulose (MC) 97 % of control | dose: 200.0 mg/kg/injection, schedule: Q04DX003 (ip), vehicle: saline with Tween-80 107 % of control

Cc1ccc(CCC(=O)O)c2ccccc12
inactive: [1] 93 % of control | [2] 87 % of control

O=C(COc1cccc(Cl)c1)NCc1ccc(NC(=O)CBr)cc1
inactive: dose: 25.0 mg/kg/injection, schedule: Q01DX001 (ip), vehicle: gum acacia 94 % of control | dose: 50.0 mg/kg/injection, schedule: Q01DX001 (ip), vehicle: gum acacia 96 % of control | dose: 100.0 mg/kg/injection, schedule: Q01DX001 (ip), vehicle: gum acacia 98 % of control | dose: 200.0 mg/kg/injection, schedule: Q01DX001 (ip), vehicle: gum acacia 90 % of control | dose: 400.0 mg/kg/injection, schedule: Q01DX001 (ip), vehicle: gum acacia 90 % of control

CCOC(=O)Nc1cc2c(c(N)n1)N=C(CN(C)c1ccc(C(=O)OC)cc1)CN2
inactive: dose: 5.0 mg/kg/injection, schedule: Q01DX009 (ip), vehicle: saline with Tween-80 105 % of control | dose: 10.0 mg/kg/injection, schedule: Q01DX009 (ip), vehicle: saline with Tween-80 118 % of control | dose: 20.0 mg/kg/injection, schedule: Q01DX009 (ip), vehicle: saline with Tween-80 124 % of control | dose: 100.0 mg/kg/injection, schedule: Q01DX001 (ip), vehicle: other 107 % of control | dose: 200.0 mg/kg/injection, schedule: Q01DX001 (ip), vehicle: other 111 % of control

O=S(=O)(N=C1C(Cl)=C(Cl)C(=NS(=O)(=O)c2ccccc2)C(Cl)=C1Cl)c1ccccc1
inactive: dose: 100.0 mg/kg/injection, schedule: Q01DX009 (ip), vehicle: Klucel (hydroxypropylcellulose) (HPC) 98 % of control | dose: 200.0 mg/kg/injection, schedule: Q01DX009 (ip), vehicle: Klucel (hydroxypropylcellulose) (HPC) 100 % of control | dose: 400.0 mg/kg/injection, schedule: Q01DX009 (ip), vehicle: Klucel (hydroxypropylcellulose) (HPC) 101 % of control

O/N=C/c1ccco1
inactive: [3] 100 % of control | [4] 103 % of control | [5] 103 % of control

O=C(O)/C=C(/Oc1ccc(Cl)cc1Cl)C(=O)O
inactive: [1] 97 % of control | [3] 100 % of control | [2] 87 % of control | [4] 100 % of control | dose: 400.0 mg/kg/injection, schedule: Q04DX002 (ip), vehicle: Klucel (hydroxypropylcellulose) (HPC) 110 % of control | [5] 100 % of control

CCCCSN1CCCCC1
inactive: [3] 93 % of control | [4] 93 % of control

CCOC(=O)/C(=C\c1ccccc1)C(C)=O
inactive: dose: 100.0 mg/kg/injection, schedule: Q04DX003 (ip), vehicle: Klucel (hydroxypropylcellulose) (HPC) 101 % of control | dose: 200.0 mg/kg/injection, schedule: Q04DX003 (ip), vehicle: Klucel (hydroxypropylcellulose) (HPC) 92 % of control | dose: 400.0 mg/kg/injection, schedule: Q04DX003 (ip), vehicle: Klucel (hydroxypropylcellulose) (HPC) 104 % of control

COc1ccc(CCN(C)C2CC3CCC2(C)C3(C)C)cc1OC (stereo not given)
inactive: dose: 100.0 mg/kg/injection, schedule: Q01DX001 (ip), vehicle: saline 93 % of control | dose: 200.0 mg/kg/injection, schedule: Q01DX001 (ip), vehicle: saline 96 % of control | dose: 400.0 mg/kg/injection, schedule: Q01DX001 (ip), vehicle: saline 100 % of control

— PubChem BioAssay AID248 (DTP/NCI, 2004)
